According to US20030032632A1, “Pharmaceutical aerosol formulation of salmeterol and fluticasone propionate” (priority 1999, published 2003):

Experiments:
[1] = Chemical degradation on storage in ethanol/HFA134a solution; assay type: physicochemical
[2] = Solubility in ethanol/HFA134a and ethanol/HFA227 mixtures; assay type: physicochemical; conditions: mixtures of ethanol/HFA134a and ethanol/HFA227

Compound | chemical degradation on storage [1] | solubility relative to racemic salmeterol xinafoate [2]
OCc1cc(C(O)CNCCCCCCOCCCCc2ccccc2)ccc1O (stereo not drawn) [salmeterol, 4-hydroxy-α^1-[[[6-(4-phenylbutoxy)hexyl]amino]methyl]-1,3-benzenedimethanol] | shows a tendency to exhibit chemical degradation | –
CCC(=O)O[C@]1(C(=O)SCF)[C@H](C)C[C@H]2[C@@H]3C[C@H](F)C4=CC(=O)C=C[C@]4(C)[C@@]3(F)[C@@H](O)C[C@@]21C [fluticasone propionate, (6a, 11b, 16a, 17a)-6,9-difluoro-11-hydroxy-16-methyl-3-oxo-17-(1-oxopropoxy) androsta-1,4-diene-17-carbothioic acid, S-fluoromethyl ester] | quite stable to chemical degradation | –
O=C(O)c1ccc2ccccc2c1O.OCc1cc(C(O)CNCCCCCCOCCCCc2ccccc2)ccc1O (stereo not shown) [R-salmeterol xinafoate] | – | significantly more soluble
OCc1cc(C(O)CNCCCCCCOCCCCc2ccccc2)ccc1O (stereo not drawn) [salmeterol base, 4-hydroxy-α^1-[[[6-(4-phenylbutoxy)hexyl]amino]methyl]-1,3-benzenedimethanol] | – | substantially more soluble
